Measurements published in paper PMC4230943, “Mimicking Hypoxia to Treat Anemia: HIF-Stabilizer BAY 85-3934 (Molidustat) Stimulates Erythropoietin Production without Hypertensive Effects” (PLoS ONE, 2014).

What was measured:
[1] = test system: matrix metalloproteinases and other peptidases; test: Activity against related enzymes (n = 8); format: biochemical; conditions: 10 µM, n = 8 enzymes, data not shown
Experimental: The selectivity of BAY 85-3934 was examined via a broad panel of radio-ligand binding assays (n = 67), and by examining the activity of BAY 85-3934 against related enzymes (matrix metalloproteinases and other peptidases, n = 8). At a concentration of 10 µM, no significant (> 50%) activity in any of these assays was detected (data not shown).

male Wistar rats [2] = test: Single oral dose: plasma EPO and reticulocytes in healthy rats; format: in vivo, rat
Experimental: Male Wistar rats (240–340 g in body weight) were housed with five animals per cage for at least 1 week before experimentation. Blood samples from rats were collected under anesthesia (2% isoflurane in air) by puncturing the retro-orbital vein plexus with a glass capillary. […] The number of reticulocytes in 5 µl blood was counted after staining with thiazol orange (Becton Dickinson) according to the manufacturer’s instructions by FACS analysis on a BD FACSCalibur system (Becton Dickinson). […] The time-course of induction of EPO mRNA expression and plasma EPO was determined at baseline and 0.5 h, 1 h, 2 h, 4 h, 6 h, and 8 h after oral administration of a single dose of BAY 85-3934 (5 mg/kg). EPO was measured in plasma samples taken from rodents using a commercial ELISA kit (R&D Systems), according to the manufacturer’s instructions. Relative plasma EPO levels were given in picograms per milliliter. […] Experiments were conducted in male Wistar rats to assess the threshold doses for EPO induction and the erythropoietic activity of BAY 85-3934.

female Lewis rats = test: PG-PS-induced inflammatory anemia model; format: in vivo, rat
Experimental: Female Lewis rats (Harlan Laboratories), with a body weight of 155–181 g were used. Body weight, ankle diameter, hematocrit, and blood cell count were determined at baseline and thereafter at regular intervals. PG-PS from Streptococcus pyogenes (Becton Dickinson) was dissolved in sterile saline and administered via i.p. injection at 15 mg/kg. […] Two weeks after injection, animals were distributed into treatment groups in equal proportions based on their hematocrit levels. On day 15, BAY 85-3934 was given orally once daily at doses of 2.5 mg/kg and 5.0 mg/kg. At the end of the study, animals were sacrificed and kidney and liver samples were processed for qRT-PCR analysis.
Total RNA was extracted from shock-frozen cell or tissue samples using the TRIzol method. Integrity of obtained RNA was checked on a Bioanalyzer (Agilent Technologies). For reverse transcription, 1 µg of total RNA was digested with RNase-free DNase I (Gibco) for 15 min at room temperature, and then reverse-transcribed using Promiscript (Promega GmbH) in a total reaction volume of 40 µl according to the standard protocol of the supplier. After inactivation of the enzyme by heating to 65°C for 15 min, the obtained cDNA was diluted to a final volume of 150 µl with double-distilled water, and 4 µl used per PCR reaction. qRT-PCR, including normalization of raw data to cytosolic β-actin, was carried out as described previously. The resulting expression is given in arbitrary units.
Renal anemia, particularly in patients with ESRD on dialysis, is often associated with systemic inflammation and EPO resistance. The potential for BAY 85-3934 to reverse anemia was evaluated in a rodent model of protracted inflammatory anemia associated with chronic polyarthritis, induced by challenge with PG-PS [38]. The severity of the inflammatory response after PG-PS challenge was underscored by the finding that there was elevated expression of a panel of cytokines and inflammatory marker genes, several of which are known to disturb iron utilization (interleukin-1, interleukin-6, tumor necrosis factor-α, and hepcidin) and to impair proliferation and differentiation of erythroid precursors (interleukin-1 and tumor necrosis factor-α).

male Wistar rats [3] = test: Subtotal nephrectomy (remnant kidney) model; format: in vivo, rat
Experimental: In the chronic disease models of subtotal nephrectomy and inflammation, the sodium salt of BAY 85-3934 was used. For administration in drinking water, BAY 85-3934 sodium and enalapril were prepared as 100 mM sodium bicarbonate saline solutions (adjusted to pH 7) at final concentrations of 80 ppm and 30 ppm, respectively. Sham and vehicle control animals received saline only. Unless otherwise stated, chemicals and reagents were purchased from Sigma-Aldrich.
Subtotal nephrectomy was conducted in adult male Wistar rats. Body weight, blood pressure, hematocrit, and blood cell counts were determined at baseline and thereafter at weekly intervals. At baseline, rats were randomly distributed into two groups: those that underwent subtotal nephrectomy and those that underwent a sham procedure without reduction of renal mass. Surgery was performed in deeply anesthetized (2% isoflurane in air) animals. Kidneys were accessed via a dorsolateral incision of the body wall of about 2 cm in length. The right kidney was removed after ligature of the renal peduncle, and subsequently the upper and lower pole of the left kidney were removed, followed by careful hemostasis. Approximately one third of the initial kidney mass remained (removed tissue was weighed to check this was achieved). In the sham-treated animals, both kidneys were exposed before closure of the wound. Three weeks after surgery, animals were allocated to each group in equal proportions with respect to systolic blood pressure and hematocrit values. For 5 weeks, animals were treated twice weekly with rhEPO (100 IU/kg), or once daily with […] (2.5 mg/kg or 5.0 mg/kg) or vehicle. In experiments using enalapril or a combination of BAY 85-3934 sodium and enalapril, study drugs were administered with drinking water. BAY 85-3934 sodium and enalapril were administered in drinking water at concentrations of 80 ppm and 30 ppm, respectively. This was equivalent to approximately 2 mg/kg/day for enalapril and 5 mg/kg/day for BAY 85-3934. Systolic blood pressure and heart rate were determined using the tail-cuff method (a semi-automatic, non-invasive blood pressure monitor; TSE Systems), with three repeated measurements per animal.
EPO was measured in plasma samples taken from rodents using a commercial ELISA kit (R&D Systems), according to the manufacturer’s instructions. Relative plasma EPO levels were given in picograms per milliliter. In cynomolgus monkeys, EPO was measured using a combination anti-human EPO ELISAs (R&D Systems and Roche Diagnostics), with human EPO as a standard. Values were given as units per liter. For determination of plasma prorenin from rats, a commercial ELISA (Oxford Biomedical Research) was used according to the manufacturer’s instructions. Hemoglobin in rodent blood samples was determined on a Cell-Dyn 3700 apparatus (Abbott Diagnostics). BAY 85-3934 plasma concentrations were determined after protein precipitation with acetonitrile/ammonium acetate using an internal standard, followed by separation using HPLC/mass spectrometry.
As well as anemia and inflammation, CKD is often accompanied by hypertension, upon which treatment with rhEPO may have an unfavorable impact. The effects of BAY 85-3934 were compared with rhEPO in the remnant kidney (subtotal nephrectomy) model in rats.

In the case of O=c1c(-n2ccnn2)c[nH]n1-c1cc(N2CCOCC2)ncn1 [BAY 85-3934, 2-[6-(morpholin-4-yl)pyrimidin-4-yl]-4-(1H-1,2,3-triazol-1-yl)-1,2-dihydro-3H-pyrazol-3-one], the “activity against related enzymes” value [1] is reported as no more than 50%, the “time for which maximal plasma EPO concentrations were maintained” value (male Wistar rats [2]; doses of 500 mg/kg and above) is reported as “over 48 h” and the “doses giving maximal EPO induction” value (male Wistar rats [2]; single oral administration, data not shown) is reported as no less than 500 mg/kg. The “doses giving statistically significant EPO induction” value (male Wistar rats [2]; single oral administration, plasma EPO at 4 h) was no less than 1.25 mg/kg, the “doses giving a dose-dependent increase in the proportion of reticulocytes” value (male Wistar rats [2]; single oral dose, 72 h) was no less than 1.25 mg/kg and the “mean PCV” value (female Lewis rats; 2.5 mg/kg once daily oral) was “halted further decline”. For the same compound, the “expression levels of monocyte chemotactic protein-1 and hepcidin” value (female Lewis rats; 5 mg/kg dose group) was “significantly reduced”, the “mean PCV” value (female Lewis rats; 5 mg/kg once daily oral) was “reversed mean PCV decline” and the “time after PG-PS challenge for PCV to return to normal levels” value (female Lewis rats; 5 mg/kg once daily oral) was no more than 5 weeks. The “initial increase in white blood cell count” value (female Lewis rats; data not shown) was “attenuated”, the “kidney EPO mRNA expression” value (female Lewis rats; end of study) was “significantly larger increase” and the “course of polyarthritis (hind limb ankle diameter, body weight gain)” value (female Lewis rats; rat, in vivo) was “did not influence”. For the same compound, the “mean systolic blood pressure” value (male Wistar rats [3]; 2.5 mg/kg group) was “almost normalized values”, the “systolic blood pressure versus control and rhEPO-treated animals” value (male Wistar rats [3]; 5 mg/kg) was “significantly lower” and the “mean PCV” value (male Wistar rats [3]; 5 mg/kg group, 2 weeks after onset of treatment) was “exceeded 50%”. The “systolic blood pressure compared with untreated controls” value (male Wistar rats [3]; 5 weeks, tail-cuff) was “sustained reduction”, the “mean PCV” value (male Wistar rats [3]; BAY 85-3934 2.5 and 5 mg/kg once daily, rhEPO 100 IU/kg twice weekly) was “significantly increased” and the cardiac hypertrophy (male Wistar rats [3]; data not shown) was “complete prevention”. For the same compound, the “plasma prorenin after the decrease in blood pressure” value (male Wistar rats [3]; once daily oral, 5 weeks) was “not followed by the return of prorenin to normal levels”.
